Source: ChEMBL document CHEMBL1201862, “PubChem BioAssay data set” (2004)
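Each compound was tested at five concentrations against cells in 96-well plates for 48 hours. At the GI50, growth is halved.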 Active and inactive are the calls of the source. Cut-off read from the data, not from the text of the source: active = GI50 up to about 1.1 µM and inactive = higher.

What was measured:
Test in all cases: inhibition of tumour cell growth, NCI panel, 48 h
DLD-1 = system: DLD-1
DMS-114 = system: DMS-114
HL-60 = system: HL-60
HOP-62 = system: HOP-62
HOP-92 = system: HOP-92
IGROV-1 = system: IGROV-1
LOX IMVI = system: LOX IMVI
M19-MEL = system: M19-MEL
NCI-H460 = system: NCI-H460
NCI-H522 = system: NCI-H522
OVCAR-8 = system: OVCAR-8
SNB-78 = system: SNB-78
XF498 = system: XF498
UACC-257 = system: UACC-257
UO-31 = system: UO-31
786-0 = system: 786-0
MDA-MB-231 = system: MDA-MB-231
MDA-MB-435 = system: MDA-MB-435
MDA-N = system: MDA-N
PC-3 = system: PC-3

Structure (SMILES) | GI50 (DLD-1) | GI50 (DMS-114) | GI50 (HL-60) | GI50 (HOP-62) | GI50 (HOP-92) | GI50 (IGROV-1) | GI50 (LOX IMVI) | GI50 (M19-MEL) | GI50 (NCI-H460) | GI50 (NCI-H522) | GI50 (OVCAR-8) | GI50 (SNB-78) | GI50 (XF498) | GI50 (UACC-257) | GI50 (UO-31) | GI50 (786-0) | GI50 (MDA-MB-231) | GI50 (MDA-MB-435) | GI50 (MDA-N) | GI50 (PC-3)
CCOC(=O)NC(=O)c1cn(CCNCCO)c(=O)[nH]c1=O | > 100 µM (inactive) | > 100 µM (inactive) | > 100 µM (inactive) | > 100 µM (inactive) | > 100 µM (inactive) | > 100 µM (inactive) | > 100 µM (inactive) | > 100 µM (inactive) | > 100 µM (inactive) | > 100 µM (inactive) | > 100 µM (inactive) | > 100 µM (inactive) | > 100 µM (inactive) | – | – | – | – | – | – | –
NC(S)=Nc1cc(Cl)ccc1Cl | > 100 µM (inactive) | > 100 µM (inactive) | > 100 µM (inactive) | > 100 µM (inactive) | 85.1 µM (inactive) | > 100 µM (inactive) | > 100 µM (inactive) | > 100 µM (inactive) | > 100 µM (inactive) | > 100 µM (inactive) | 62.1 µM (inactive) | > 100 µM (inactive) | 94.6 µM (inactive) | > 100 µM (inactive) | > 100 µM (inactive) | – | – | – | – | –
Cc1ccc(N(O)C(C)(C)C)cc1 | > 100 µM (inactive) | > 100 µM (inactive) | > 78.3 µM (inactive) | > 100 µM (inactive) | > 100 µM (inactive) | > 100 µM (inactive) | > 100 µM (inactive) | > 100 µM (inactive) | > 100 µM (inactive) | > 100 µM (inactive) | > 100 µM (inactive) | – | > 100 µM (inactive) | > 100 µM (inactive) | > 100 µM (inactive) | – | – | – | – | –
CC(=O)Nc1ccc(C(=O)NN2C(=O)C(Cl)C2/C=C/c2ccccc2)cc1 (configuration not stated) | > 100 µM (inactive) | – | > 100 µM (inactive) | > 100 µM (inactive) | > 100 µM (inactive) | > 100 µM (inactive) | – | > 100 µM (inactive) | > 100 µM (inactive) | > 100 µM (inactive) | > 100 µM (inactive) | – | – | > 100 µM (inactive) | > 100 µM (inactive) | – | – | – | – | –
O=[N+]([O-])c1cc2ncc(-c3ccccc3)c(O)c2cc1/C(Cl)=C/c1ccccc1 | 3.83 µM (inactive) | 4.88 µM (inactive) | 5.25 µM (inactive) | 16.3 µM (inactive) | 3.47 µM (inactive) | 5.83 µM (inactive) | 6.93 µM (inactive) | 11.6 µM (inactive) | 9.16 µM (inactive) | 3.48 µM (inactive) | 5.6 µM (inactive) | 8.73 µM (inactive) | 8.24 µM (inactive) | 24.3 µM (inactive) | 9.89 µM (inactive) | – | – | – | – | –
CC1(C)OC2COC3(CNO)OC(C)(C)OC3C2O1 (configuration not stated) | > 100 µM (inactive) | > 100 µM (inactive) | 16.6 µM (inactive) | > 100 µM (inactive) | 65.8 µM (inactive) | > 100 µM (inactive) | > 100 µM (inactive) | > 100 µM (inactive) | > 100 µM (inactive) | – | > 100 µM (inactive) | > 100 µM (inactive) | – | > 100 µM (inactive) | > 100 µM (inactive) | > 100 µM (inactive) | – | – | – | –
COc1ccc(OC)c(C(=O)/C=C/c2cc(O)c(O)cc2F)c1 | – | – | 0.0361 µM (active) | 1.05 µM (active) | 10.1 µM (inactive) | 1.61 µM (inactive) | 0.69 µM (active) | – | 2.14 µM (inactive) | 0.272 µM (active) | 2.14 µM (inactive) | – | – | 3.1 µM (inactive) | 2.66 µM (inactive) | 2.28 µM (inactive) | 1.41 µM (inactive) | 0.219 µM (active) | 0.181 µM (active) | 4.18 µM (inactive)
CC(=O)/C=C/c1c[nH]c(=O)[nH]c1=O | 179 µM (inactive) | 242 µM (inactive) | 97.9 µM (inactive) | 303 µM (inactive) | 8.13 µM (inactive) | 151 µM (inactive) | 97.5 µM (inactive) | 390 µM (inactive) | 186 µM (inactive) | 94.4 µM (inactive) | 241 µM (inactive) | 159 µM (inactive) | 38.4 µM (inactive) | 265 µM (inactive) | 130 µM (inactive) | – | – | – | – | –
Nc1nc(=O)n(CC(O)CO)s1 (configuration not stated) | > 100 µM (inactive) | > 100 µM (inactive) | > 100 µM (inactive) | > 100 µM (inactive) | – | > 100 µM (inactive) | > 100 µM (inactive) | > 100 µM (inactive) | > 100 µM (inactive) | – | > 100 µM (inactive) | – | – | > 100 µM (inactive) | > 100 µM (inactive) | – | – | – | – | –
CC(C)(C)[Si](OC1CC(n2cnc3c(N)ncnc32)OC1CO)(c1ccccc1)c1ccccc1 (configuration not stated) | 15.5 µM (inactive) | 23.7 µM (inactive) | 41.4 µM (inactive) | 22.5 µM (inactive) | 20.2 µM (inactive) | 20.8 µM (inactive) | 17.7 µM (inactive) | 19.7 µM (inactive) | 16.3 µM (inactive) | 16 µM (inactive) | 18.9 µM (inactive) | > 100 µM (inactive) | 10.4 µM (inactive) | 66.5 µM (inactive) | 23.7 µM (inactive) | – | – | – | – | –
O=C(NCCCCCCNC(=O)n1cc(F)c(=O)[nH]c1=O)NCCCOCCOCCCNC(=O)C(O)C(O)C(O)C(O)CO (configuration not stated) | 2.44 µM (inactive) | > 2.5 µM (inactive) | > 2.29 µM (inactive) | > 2.5 µM (inactive) | > 2.5 µM (inactive) | > 2.5 µM (inactive) | > 2.16 µM (inactive) | > 2.5 µM (inactive) | 1.51 µM (inactive) | > 2.5 µM (inactive) | > 2.5 µM (inactive) | > 2.5 µM (inactive) | > 2.5 µM (inactive) | > 2.5 µM (inactive) | > 2.3 µM (inactive) | – | – | – | – | –
[O-][S+]1c2ccccc2NC(c2ccc3ccccc3c2)CC1c1ccccc1 (configuration not stated) | 23.3 µM (inactive) | – | 24.3 µM (inactive) | 40.6 µM (inactive) | – | 19.3 µM (inactive) | 17.9 µM (inactive) | 20.9 µM (inactive) | 19.5 µM (inactive) | 17.8 µM (inactive) | 21.2 µM (inactive) | – | 19.1 µM (inactive) | 32.4 µM (inactive) | 18 µM (inactive) | 17.3 µM (inactive) | – | – | – | –
CCOC(=O)[C@H]1Nc2c(cccc2[N+](=O)[O-])[C@H]2OCC[C@@H]12 | > 100 µM (inactive) | > 100 µM (inactive) | – | > 100 µM (inactive) | – | > 100 µM (inactive) | > 100 µM (inactive) | > 100 µM (inactive) | > 100 µM (inactive) | > 100 µM (inactive) | > 100 µM (inactive) | > 100 µM (inactive) | > 100 µM (inactive) | 11.5 µM (inactive) | > 100 µM (inactive) | – | – | – | – | –
N=C(N)NS(=O)(=O)c1ccc(Nc2c3ccccc3nc3c(C(=O)N4CCN(CCO)CC4)ccc(Cl)c23)cc1 | > 100 µM (inactive) | > 100 µM (inactive) | > 100 µM (inactive) | > 100 µM (inactive) | > 100 µM (inactive) | > 100 µM (inactive) | – | > 100 µM (inactive) | > 100 µM (inactive) | – | > 100 µM (inactive) | 30.5 µM (inactive) | > 100 µM (inactive) | > 100 µM (inactive) | > 100 µM (inactive) | – | – | – | – | –
C[Si](C)(C)CC(N)=O | > 100 µM (inactive) | > 100 µM (inactive) | > 100 µM (inactive) | > 100 µM (inactive) | > 100 µM (inactive) | > 100 µM (inactive) | > 100 µM (inactive) | > 100 µM (inactive) | > 100 µM (inactive) | – | > 100 µM (inactive) | > 100 µM (inactive) | > 100 µM (inactive) | > 100 µM (inactive) | > 100 µM (inactive) | > 100 µM (inactive) | – | – | – | –
Cc1cnc(SCCN2CCN(C)CC2)nc1-c1cc2ccccc2s1 | 12.6 µM (inactive) | 7.66 µM (inactive) | – | 0.155 µM (active) | 5.53 µM (inactive) | > 10 µM (inactive) | 5.09 µM (inactive) | – | 3.51 µM (inactive) | 14.7 µM (inactive) | 12.6 µM (inactive) | 16.7 µM (inactive) | – | 10.3 µM (inactive) | 7.78 µM (inactive) | 12 µM (inactive) | – | – | – | –
COc1ccccc1NC(=O)/C(Cc1nc2ccc([N+](=O)[O-])cc2nc1O)=N\NC(=O)C[N+](C)(C)C | – | – | 12.3 µM (inactive) | > 100 µM (inactive) | > 100 µM (inactive) | 55.3 µM (inactive) | > 100 µM (inactive) | – | 38.1 µM (inactive) | 28.3 µM (inactive) | > 100 µM (inactive) | – | – | > 100 µM (inactive) | 25.7 µM (inactive) | 68.7 µM (inactive) | > 100 µM (inactive) | 20 µM (inactive) | 14.9 µM (inactive) | > 100 µM (inactive)
COc1cc(/N=N\c2cccc(S(=O)(=O)O)c2)c(C)cc1/N=N\c1ccc(/C=C/c2ccc(/N=[N+](/[O-])c3ccc(/C=C/c4ccc(/N=N\c5cc(C)c(/N=N/c6cccc(S(=O)(=O)O)c6)cc5OC)cc4)c(S(=O)(=O)O)c3)cc2S(=O)(=O)O)cc1 | > 100 µM (inactive) | > 100 µM (inactive) | > 100 µM (inactive) | > 100 µM (inactive) | > 77.3 µM (inactive) | > 100 µM (inactive) | > 100 µM (inactive) | > 100 µM (inactive) | > 100 µM (inactive) | > 93.5 µM (inactive) | > 100 µM (inactive) | – | > 100 µM (inactive) | > 100 µM (inactive) | > 100 µM (inactive) | – | – | – | – | –
CCN(CC)c1ccc2cc(C(=O)Nc3ccc4[nH]c(C(=O)N5C[C@@H](CCl)c6c5cc(OC(=O)Nc5ccccc5)c5[nH]cc(C)c65)cc4c3)oc2c1 [CARZELESIN] | – | 0.000201 µM (active) | 0.000282 µM (active) | 0.000171 µM (active) | > 1000 µM (inactive) | 0.000506 µM (active) | 0.000128 µM (active) | 0.000316 µM (active) | 9.08e-05 µM (active) | 0.000708 µM (active) | 234 µM (inactive) | 0.000995 µM (active) | – | 384 µM (inactive) | 668 µM (inactive) | – | – | – | – | –
